# Experimental data as given in patent US12527849B2, “Apparatus for determining administration form of a composition of an engineered virus-based nanoparticle for a treatment of an autoimmune condition” (Diamante Srl, priority 2021, dated 2026).
# Assays:
# IL-10 = test: Cytokine ELISA in CIA mice, day 60: IL-10; format: in vivo; conditions: serum pooled from five CIA mice
# From the text: (§1) With continued reference to FIG. 1, in some embodiments, administration 116 may be done to an animal. As a non-limiting example, the animal may include a mouse, a fish, a rabbit, human, and the like. As a non-limiting example, administration 116 of composition of the engineered virus-based nanoparticle for a treatment of an autoimmune condition may be done to dilute, brown, and non-agouti (DBA) mice based on their susceptibility to collagen-induced arthritis (CIA). Female DBA/1 mice 6 to 8 weeks of age may be maintained under specific pathogen-free conditions. CIA may be induced by the intradermal tail base injection of 100 μg of chicken type II collagen (Sigma-Aldrich) as previously described. Five mice per group may be immunized on days 0 and 21 to induce arthritis. The onset of disease may be confirmed on the day that swelling or erythema may be observed in any paw, typically 4 to 10 days after the second immunization. Each experimental group may be treated seven times, 5 days apart, starting from day 28 after the first immunization, with intraperitoneal injections of saline (200 μI per mouse), TBSV·pLIp1, TBSV·pFADK2, pLIp1+IFA, and pFADK2+IFA (all 50 μg per mouse in 200 μl) or dexamethasone (5 μg per mouse in 200 μl). […] CIA may be assessed using a macroscopic score system based on the visual identification of arthritic limbs.
# IFN-γ = test: Cytokine ELISA in CIA mice, day 60: IFN-γ; format: in vivo
# From the text: as §1, with “immunization.” for “immunization. Each experimental group may be treated seven times, 5 days apart, starting from day 28 after the first immunization, with intraperitoneal injections of saline (200 μI per mouse), TBSV·pLIp1, TBSV·pFADK2, pLIp1+IFA, and pFADK2+IFA (all 50 μg per mouse in 200 μl) or dexamethasone (5 μg per mouse in 200 μl).”, “limbs. The clinical severity of arthritis may be evaluated as follows: Each mouse may be inspected every 2 to 3 days for three different parameters: (i) swelling of the hind ankle and foot, measured with calipers; (ii) erythema of each leg; and (iii) swelling of the fingers. The RA index for each mouse was expressed as the mean of the three scores from the individual parameters. At the end of the experiment (60 days), we determined the proportion of CD25+Foxp3+ cells in the lymph nodes and measured cytokine titers in the lymph nodes, joints, and serum.” for “limbs.”
# With continued reference to FIG. 1, in some embodiments, processor 104 may determine critical administration 124 as a function of a cytokine profile and a proportion of CD25^+ Foxp3^+ cells. […] In some embodiments, to quantify cytokines in DBA mice, joint tissues may be pulverized and resuspended in 1 ml of lysis medium per 100-mg joint weight for 60 min at 37′C, followed by centrifugation to remove debris. […]
compound,measurement,setting,value
"C[C@@H]1C[C@H]2[C@@H]3CCC4=CC(=O)C=C[C@]4(C)[C@@]3(F)[C@@H](O)C[C@]2(C)[C@@]1(O)C(=O)CO [Dexamethasone, dexamethasone]",IL-10,IL-10,71.6 pg/mL
same,IFN-γ J,"IFN-γ; joint supernatant, CIA mice, day 60, mean n=3",187.23 pg/mL
same,IFN-γ LN,"IFN-γ; lymph node supernatant, CIA mice, day 60, mean n=3",210.86 pg/mL
same,IFN-γ S,"IFN-γ; serum pooled from five CIA mice, day 60",75.6 pg/mL
